According to patent US11524966B1 (Valo Early Discovery, Inc., priority 2017, dated 2022):

The compounds below were run against T1, USP28 (His-tagged USP28-FL-mammalian) (Homo sapiens, UniProt Q96RU2) (assay: Ubiquitin-Rhodamine 110 Assay for USP28 Activity, Example A-1(a)). Details: Ubiquitin-Rhodamine 110 assay, Example A-1(a); read-out: USP28 A-1(a) IC50 range.
T1 construct: Expression of USP28 (1-1077)-TEV-6*His (pTT5 vector); made in house; host or cells: Expi293f cells (pTT5 vector)
T1 sequence (Q96RU2 1-1077): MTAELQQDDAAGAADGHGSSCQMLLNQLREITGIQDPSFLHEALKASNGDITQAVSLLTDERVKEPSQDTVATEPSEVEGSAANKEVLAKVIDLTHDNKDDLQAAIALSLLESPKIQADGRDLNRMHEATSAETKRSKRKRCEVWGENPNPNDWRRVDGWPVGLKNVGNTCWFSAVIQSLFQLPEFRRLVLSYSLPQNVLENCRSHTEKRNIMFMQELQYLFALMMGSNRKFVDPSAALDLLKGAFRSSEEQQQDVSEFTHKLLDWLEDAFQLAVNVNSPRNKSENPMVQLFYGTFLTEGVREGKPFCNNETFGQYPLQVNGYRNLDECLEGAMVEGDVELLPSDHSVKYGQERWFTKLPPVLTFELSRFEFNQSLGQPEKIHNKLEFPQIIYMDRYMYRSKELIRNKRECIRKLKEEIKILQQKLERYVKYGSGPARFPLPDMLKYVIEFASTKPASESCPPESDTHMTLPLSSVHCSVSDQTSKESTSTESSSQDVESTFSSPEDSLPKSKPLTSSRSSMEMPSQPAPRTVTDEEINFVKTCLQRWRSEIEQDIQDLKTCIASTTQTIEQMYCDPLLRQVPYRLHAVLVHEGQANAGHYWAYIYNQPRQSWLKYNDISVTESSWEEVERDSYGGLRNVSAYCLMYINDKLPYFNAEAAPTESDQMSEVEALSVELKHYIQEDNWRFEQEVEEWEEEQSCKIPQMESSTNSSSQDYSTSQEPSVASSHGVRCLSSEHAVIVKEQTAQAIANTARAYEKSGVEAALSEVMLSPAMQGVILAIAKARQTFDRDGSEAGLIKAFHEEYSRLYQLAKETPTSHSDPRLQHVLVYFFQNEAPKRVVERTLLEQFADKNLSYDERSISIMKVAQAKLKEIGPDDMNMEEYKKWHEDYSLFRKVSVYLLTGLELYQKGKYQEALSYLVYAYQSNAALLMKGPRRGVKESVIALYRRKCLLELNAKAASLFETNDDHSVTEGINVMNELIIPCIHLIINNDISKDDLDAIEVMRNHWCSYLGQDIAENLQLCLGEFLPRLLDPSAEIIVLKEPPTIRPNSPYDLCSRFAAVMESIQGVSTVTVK
Assay type: biochemical
How it was run: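 Full-length His-tagged human USP28 (1-1077, Expi293f-expressed), […], with 25 nM Ub-Rh110 (<<Km) in pH 8.0 Tris buffer with BME, BGG, Triton X-100. 10-point dilutions (25 μM-1.3 nM), 45 min at room temperature, citric acid stop, fluorescence 485/535 nm; IC50 by 4-parameter fit.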

Compared with `Cc1ccc2c(N)c(C(=O)N[C@@H]3CCc4cc(N5CCN[C@@H](CO)C5)ccc4C3)sc2n1` (single isomer, unassigned) [Example 7-11], `Cc1ccc2c(N)c(C(=O)N[C@H]3CCc4cc(N5CCN[C@@H](CO)C5)ccc4C3)sc2n1` (single isomer, unassigned) [Example 7-9] is higher in IC50: 50 to 200 nM for the first, 200 to 2000 nM for the second.

`Cc1cnc2c(N)c(C(=O)N[C@H]3COc4cc(N5CC6CC(C5)N6)cc(F)c4C3)sc2n1` [Example 10-8, N-((3R)-7-(3,6-diazabicyclo[3.1.1]heptan-3-yl)-5-fluorochroman-3-yl)-7-amino-3-methylthieno[2,3-b]pyrazine-6-carboxamide] and `Cc1cc(C)c2c(N)c(C(=O)N[C@H]3COc4cc(N5CC6CC(C5)N6)cc(F)c4C3)sc2n1` [Example 10-7, N-((3R)-7-(3,6-diazabicyclo[3.1.1]heptan-3-yl)-5-fluorochroman-3-yl)-3-amino-4,6-dimethylthieno[2,3-b]pyridine-2-carboxamide] fall in the same range of IC50: 1 to 50 nM for the first, 1 to 50 nM for the second.

`Cc1cnc2c(N)c(C(=O)N[C@H]3CCc4cc(N5CC6CCC(C5)N6)cc(F)c4C3)sc2n1` (single isomer, unassigned) [Example 11-13] and `Cc1cnc2c(N)c(C(=O)N[C@@H]3CCc4cc(N5CC6CCC(C5)N6)ccc4C3)sc2n1` (single isomer, unassigned) [Example 11-8] fall in the same range of IC50: 200 to 2000 nM for the first, 200 to 2000 nM for the second.

Compared with `Cc1ccc2c(N)c(C(=O)N[C@H]3CCc4cc(N5CCNCC5)cc(F)c4C3)sc2n1` (single isomer, unassigned) [Example 11-11], `Cc1ccc2c(N)c(C(=O)N[C@H]3COc4cc(C5(F)CCNCC5)ccc4C3)sc2n1` [Example 8-1, (R)-3-Amino-N-(7-(4-fluoropiperidin-4-yl)chroman-3-yl)-6-methylthieno[2,3-b]pyridine-2-carboxamide] is lower in IC50: 200 to 2000 nM for the first, 1 to 50 nM for the second. The second is the more potent here.

Same assay, conditions: Ubiquitin-Rhodamine 110 assay, format Example A-1(a); read-out: USP28 A-1(a) IC50 range

`Cc1ccc2c(N)c(C(=O)N[C@H]3COc4c(F)c(N5CC6CCC(C5)N6)cc(F)c4C3)sc2n1` (single isomer, unassigned) [Example 13-1] and `Cc1ccc2c(N)c(C(=O)N[C@@H]3CCc4cc(N5CC6CCC(C5)N6)c(F)cc4C3)sc2n1` (single isomer, unassigned) [Example 21-3] fall in the same range of IC50: 1 to 50 nM for the first, 1 to 50 nM for the second.

First: Cc1ccc2c(N)c(C(=O)N[C@@H]3CCc4cc(N5C6CNCC5C6)ccc4C3)sc2n1 (single isomer, unassigned) [Example 11-36]
Second: Cc1ccc2c(N)c(C(=O)N[C@@H]3CCc4cc(N5CCNCC5)c(F)cc4C3)sc2n1 (single isomer, unassigned) [Example 21-7]
The IC50 of the first is higher: 200 to 2000 nM for the first, 50 to 200 nM for the second. The second is the more potent here.

`Cc1nc2sc(C(=O)N[C@@H]3CCc4c(C#N)c(N5CC6CCC(C5)N6)cc(F)c4C3)c(N)c2s1` (single isomer, unassigned) [Example 14-22] and `Cc1nc2sc(C(=O)N[C@H]3CCc4cc(N5CC6CCC(C5)N6)ccc4C3)c(N)c2s1` (single isomer, unassigned) [Example 12-1] fall in the same range of IC50: 200 to 2000 nM for the first, 200 to 2000 nM for the second.

First: Cc1ccc2c(N)c(C(=O)N[C@H]3CCc4c(F)c(N5CC6CNCC(C5)O6)cc(F)c4C3)sc2n1 (single isomer, unassigned) [Example 22-3]
Second: Cc1ccc2c(N)c(C(=O)N[C@@H]3CCc4c(F)c(N5CC6CNCC(C5)O6)cc(F)c4C3)sc2n1 (single isomer, unassigned) [Example 22-4]
The IC50 of the first is higher: 200 to 2000 nM for the first, 1 to 50 nM for the second. The second is the more potent here.

First: CO[C@H]1CN(c2ccc3c(n2)CC[C@H](NC(=O)c2sc4nc(C)cc(C)c4c2N)C3)C[C@@H]1N [Example 23-3, 3-amino-N-[(6S)-2-[(3S,4S)-3-amino-4-methoxypyrrolidin-1-yl]-5,6,7,8-tetrahydroquinolin-6-yl]-4,6-dimethylthieno[2,3-b]pyridine-2-carboxamide]
Second: Cc1ccc2c(N)c(C(=O)N[C@H]3COc4cc(N5CCNCC5)c(Cl)cc4C3)sc2n1 [Example 13-5, (R)-3-amino-N-(6-chloro-7-(piperazin-1-yl)chroman-3-yl)-6-methylthieno[2,3-b]pyridine-2-carboxamide]
The IC50 of the first is lower: 50 to 200 nM for the first, greater than 2000 nM for the second.
